Reference: ChEMBL document CHEMBL1201862, “PubChem BioAssay data set” (2004)
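Briefly, cells in 96-well plates were exposed to five compound concentrations for 48 h, and endpoints were estimated by linear interpolation. GI50 is the concentration that inhibits growth by half.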 Activity calls are given as the source filed them. No stated cut-off is given here; in the data, active = GI50 up to about 1.1 µM and inactive = higher.

Legend:
Assay in all cases: growth of human tumour cells (NCI), 48 h
M14 = system: M14
UACC-62 = system: UACC-62
NCI-H226 = system: NCI-H226
SK-MEL-28 = system: SK-MEL-28
NCI-H522 = system: NCI-H522
HCT-15 = system: HCT-15
K562 = system: K562
RXF 393 = system: RXF 393
LOX IMVI = system: LOX IMVI
HT-29 = system: HT-29
786-0 = system: 786-0
HOP-92 = system: HOP-92
NCI-H460 = system: NCI-H460
PC-3 = system: PC-3
NCI-H23 = system: NCI-H23
TK-10 = system: TK-10
HCC 2998 = system: HCC 2998
MOLT-4 = system: MOLT-4
SF-295 = system: SF-295
A498 = system: A498

SMILES	GI50 (M14)	GI50 (UACC-62)	GI50 (NCI-H226)	GI50 (SK-MEL-28)	GI50 (NCI-H522)	GI50 (HCT-15)	GI50 (K562)	GI50 (RXF 393)	GI50 (LOX IMVI)	GI50 (HT-29)	GI50 (786-0)	GI50 (HOP-92)	GI50 (NCI-H460)	GI50 (PC-3)	GI50 (NCI-H23)	GI50 (TK-10)	GI50 (HCC 2998)	GI50 (MOLT-4)	GI50 (SF-295)	GI50 (A498)
Oc1nc2nc3ccccc3nc2nc1O	> 100 µM (inactive)	> 100 µM (inactive)	> 100 µM (inactive)	> 100 µM (inactive)	> 100 µM (inactive)	> 100 µM	> 100 µM (inactive)	> 100 µM (inactive)	> 100 µM (inactive)	> 100 µM (inactive)	> 100 µM (inactive)	> 100 µM (inactive)	> 100 µM (inactive)	> 100 µM (inactive)	> 100 µM (inactive)	> 100 µM (inactive)	> 100 µM (inactive)	> 100 µM (inactive)	> 100 µM (inactive)	–
CC(=O)OC[C@@H](COC(=O)/C=C/c1ccc(O)cc1)OC1OC(CO)C(O)C(O)C1O (some centres not stated)	> 100 µM (inactive)	> 100 µM (inactive)	> 100 µM (inactive)	> 100 µM (inactive)	> 100 µM (inactive)	> 100 µM	> 100 µM (inactive)	> 100 µM (inactive)	> 100 µM (inactive)	> 100 µM (inactive)	> 100 µM (inactive)	> 100 µM (inactive)	> 100 µM (inactive)	–	> 100 µM (inactive)	> 100 µM (inactive)	> 100 µM (inactive)	> 100 µM (inactive)	> 100 µM (inactive)	> 100 µM (inactive)
CN(C)C(=O)Oc1ccc(C(=S)Nc2ccccc2)cc1	41.2 µM (inactive)	35.9 µM (inactive)	–	33.1 µM (inactive)	64.4 µM (inactive)	97.5 µM	24.8 µM (inactive)	–	60.1 µM (inactive)	51.2 µM (inactive)	> 100 µM (inactive)	–	40.5 µM (inactive)	96.4 µM (inactive)	28.6 µM (inactive)	–	> 100 µM (inactive)	18.3 µM (inactive)	87.7 µM (inactive)	> 100 µM (inactive)
Cc1ccc2nc3c(C(=O)NCCN(C)C)cccc3nc2c1	5.12 µM (inactive)	4.35 µM (inactive)	2.59 µM (inactive)	4.7 µM (inactive)	8.81 µM (inactive)	2.9 µM	2.47 µM (inactive)	3.56 µM (inactive)	1.82 µM (inactive)	2.32 µM (inactive)	11.5 µM (inactive)	2.38 µM (inactive)	–	–	4.26 µM (inactive)	3.73 µM (inactive)	6.05 µM (inactive)	1.64 µM (inactive)	5.22 µM (inactive)	2.47 µM (inactive)
